Results: ChEMBL document CHEMBL3885861, “Open TG-GATES”

Species: Rattus norvegicus
Experiment: Open TG-GATES - Regimen: Single
Type: toxicity, organism-based, Sprague-Dawley
Design: regimen Single, gender Male, age 6 weeks
Settings: in vivo, po, 300 mg/kg, route gavage, dose level Middle; for APTT / Bas / Eos / Fbg / Hb / Ht / Lym / MCH / MCHC / MCV / Mono / Neu / PT / Plat / RBC / Ret / WBC: tissue Blood; for KIDNEY_L / KIDNEY_R / KIDNEY_TOTAL: tissue Kidney; for LIVER: tissue Liver; for A/G / ALP / ALT / AST / BUN / CRE / Ca / Cl / DBIL / GLC / IP / K / LDH / Na / PL / RALB / TBIL / TC / TG / TP / gamma-GTP: tissue Plasma

## CNC(=C[N+](=O)[O-])NCCSCc1ccc(CN(C)C)o1 [RANITIDINE]
3 h
  TERMINAL_BW: 216.6 g
  APTT: 21.3 s
  Bas: 0%
  Eos: 1.2%
  Fbg: 224 mg/dL
  Hb: 13.1 g/dL
  Ht: 38.4%
  Lym: 75.2%
  MCH: 21.7 pg
  MCHC: 34.2%
  MCV: 63.4 fL
  Mono: 2.4%
  Neu: 18.8%
  PT: 12.5 s
  Plat: 125.4 x10_4/uL
  RBC: 606 x10_4/ul
  Ret: 6.6%
  WBC: 93.9 x10_2/uL
  KIDNEY_L: 1 g
  KIDNEY_R: 1 g
  KIDNEY_TOTAL: 2 g
  LIVER: 9.9 g
  A/G: 1.7
  ALP: 1000.2 IU/L
  ALT: 34.4 IU/L
  AST: 63.8 IU/L
  BUN: 10.2 mg/dL
  CRE: 0.4 mg/dL
  Ca: 10.7 mg/dL
  Cl: 103.8 meq/L
  DBIL: 0.07 mg/dL
  GLC: 195.6 mg/dL
  IP: 8.4 mg/dL
  K: 3.8 meq/L
  LDH: 141.6 IU/L
  Na: 141.6 meq/L
  PL: 141.2 mg/dL
  RALB: 3.4 g/dL
  TBIL: 0.1 mg/dL
  TC: 74.2 mg/dL
  TG: 48 mg/dL
  TP: 5.5 g/dL
  gamma-GTP: 0.8 IU/L
6 h
  TERMINAL_BW: 214.7 g
  APTT: 18.8 s
  Bas: 0%
  Eos: 1%
  Fbg: 220.8 mg/dL
  Hb: 13.1 g/dL
  Ht: 37.8%
  Lym: 72.6%
  MCH: 21.6 pg
  MCHC: 34.7%
  MCV: 62.4 fL
  Mono: 2.4%
  Neu: 19.8%
  PT: 12.6 s
  Plat: 119.8 x10_4/uL
  RBC: 605 x10_4/ul
  Ret: 6.9%
  WBC: 82.1 x10_2/uL
  KIDNEY_L: 1 g
  KIDNEY_R: 1 g
  KIDNEY_TOTAL: 1.9 g
  LIVER: 9.2 g
  A/G: 1.6
  ALP: 918.8 IU/L
  ALT: 36.6 IU/L
  AST: 69.6 IU/L
  BUN: 8.4 mg/dL
  CRE: 0.4 mg/dL
  Ca: 10.4 mg/dL
  Cl: 103.6 meq/L
  DBIL: 0.06 mg/dL
  GLC: 193.4 mg/dL
  IP: 8.5 mg/dL
  K: 3.8 meq/L
  LDH: 111.4 IU/L
  Na: 140.4 meq/L
  PL: 129.2 mg/dL
  RALB: 3.3 g/dL
  TBIL: 0.1 mg/dL
  TC: 69.2 mg/dL
  TG: 43.2 mg/dL
  TP: 5.4 g/dL
  gamma-GTP: 1.4 IU/L
